Measurements published in patent US6770596B1, “Fused tricyclic compounds, process for their preparation, and herbicidal compositions containing them” (Ishihara Sangyo Kaisha Ltd., priority 2002, dated 2004).

How the values were obtained:
Format in all cases: in vivo
[1] = system: redroot pigweed (Amaranthus retroflexus, AMR); assay: Pre-emerge test, redroot pigweed; conditions: 250 g ai/ha, 14 days after application, rating scale 0-100 (0 no damage, 100 complete death)
Procedure, shortened: (§1)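 Weed seeds in sandy loam soil mix received acetone-based spray (187 l/ha; 8–1000 g ai/ha) a day after sowing. Phytotoxicity was then read at 14 days on a scale from no damage (0) to full plant death (100).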

[2] = system: velvetleaf (Abutilon theophrasti, ABT); assay: Pre-emerge test, velvetleaf; conditions: 250 g ai/ha, 14 days after application, rating scale 0-100 (0 no damage, 100 complete death)
Procedure, shortened: as §1

[3] = system: sicklepod (Cassia obtusifolia, CAO); assay: Pre-emerge test, sicklepod; conditions: 250 g ai/ha, 14 days after application, rating scale 0-100 (0 no damage, 100 complete death)
Procedure, shortened: as §1

[4] = system: ivyleaf morningglory (Ipomoea hederacea, IPH); assay: Pre-emerge test, ivyleaf morningglory; conditions: 250 g ai/ha, 14 days after application, rating scale 0-100 (0 no damage, 100 complete death)
Procedure, shortened: as §1

[5] = system: lambsquarters (Chenopodium album, CHA); assay: Pre-emerge test, lambsquarters; conditions: 250 g ai/ha, 14 days after application, rating scale 0-100 (0 no damage, 100 complete death)
Procedure, shortened: as §1

[6] = system: common ragweed (Ambrosia artemisiifolia L., AML); assay: Pre-emerge test, common ragweed; conditions: 250 g ai/ha, 14 days after application, rating scale 0-100 (0 no damage, 100 complete death)
Procedure, shortened: as §1

[7] = system: cocklebur (Xanthium strumariunt, XAS); assay: Pre-emerge test, cocklebur; conditions: 250 g ai/ha, 14 days after application, rating scale 0-100 (0 no damage, 100 complete death)
Procedure, shortened: as §1

[8] = system: green foxtail (Setaria viridis, SEV); assay: Pre-emerge test, green foxtail; conditions: 250 g ai/ha, 14 days after application, rating scale 0-100 (0 no damage, 100 complete death)
Procedure, shortened: as §1

[9] = system: barnyardgrass (Echinachloa crus-galli, ECC); assay: Pre-emerge test, barnyardgrass; conditions: 250 g ai/ha, 14 days after application, rating scale 0-100 (0 no damage, 100 complete death)
Procedure, shortened: as §1

[10] = system: johnsongrass (Sorghum halepense, SOH); assay: Pre-emerge test, johnsongrass; conditions: 250 g ai/ha, 14 days after application, rating scale 0-100 (0 no damage, 100 complete death)
Procedure, shortened: as §1

[11] = system: large crabgrass (Digitaria sanguinalis, DIS); assay: Pre-emerge test, large crabgrass; conditions: 250 g ai/ha, 14 days after application, rating scale 0-100 (0 no damage, 100 complete death)
Procedure, shortened: as §1

[12] = system: field corn (Zea mays L., var. Dekalb 535, CORN); assay: Pre-emerge test, crop damage field corn
Procedure, shortened: (§2)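 Scores at 14 days after treatment use a 0–100 scale, where 0 is no damage and 100 is death of all plants. Treatments were acetone solutions sprayed at 8–1000 g ai/ha onto soil sown one day prior.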

[13] = system: soybean (Glycine max L., var. Pella 86, SOY); assay: Pre-emerge test, crop damage soybean
Procedure, shortened: as §2

[14] = system: upland rice (Oryza sp., var.Tebonnet, RICE); assay: Pre-emerge test, crop damage upland rice
Procedure, shortened: as §2

[15] = system: wheat (Triticum aestivum); assay: Pre-emerge test, crop damage wheat
Procedure, shortened: as §2

[16] = system: redroot pigweed (Amaranthus retroflexus, AMR); assay: Post-emerge test, redroot pigweed; conditions: 250 g ai/ha, 14 days after application, rating scale 0-100 (0 no damage, 100 complete death)
Procedure, shortened: (§3)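 Post-emergence spray, 8-1000 g ai/ha in acetone at 187 l/ha with 0.25% v/v non-ionic surfactant, applied to 2-3 leaf plants. Pots of sandy loam mix, greenhouse. Visual 0-100 injury rating at 14 DAT.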

[17] = system: velvetleaf (Abutilon theophrasti, ABT); assay: Post-emerge test, velvetleaf; conditions: 250 g ai/ha, 14 days after application, rating scale 0-100 (0 no damage, 100 complete death)
Procedure, shortened: as §3

[18] = system: sicklepod (Cassia obtusifolia, CAO); assay: Post-emerge test, sicklepod; conditions: 250 g ai/ha, 14 days after application, rating scale 0-100 (0 no damage, 100 complete death)
Procedure, shortened: as §3

[19] = system: ivyleaf morningglory (Ipomoea hederacea, IPH); assay: Post-emerge test, ivyleaf morningglory; conditions: 250 g ai/ha, 14 days after application, rating scale 0-100 (0 no damage, 100 complete death)
Procedure, shortened: as §3

[20] = system: lambsquarters (Chenopodium album, CHA); assay: Post-emerge test, lambsquarters; conditions: 250 g ai/ha, 14 days after application, rating scale 0-100 (0 no damage, 100 complete death)
Procedure, shortened: as §3

[21] = system: common ragweed (Ambrosia artemisiifolia L., AML); assay: Post-emerge test, common ragweed; conditions: 250 g ai/ha, 14 days after application, rating scale 0-100 (0 no damage, 100 complete death)
Procedure, shortened: as §3

[22] = system: cocklebur (Xanthium strumariunt, XAS); assay: Post-emerge test, cocklebur; conditions: 250 g ai/ha, 14 days after application, rating scale 0-100 (0 no damage, 100 complete death)
Procedure, shortened: as §3

[23] = system: green foxtail (Setaria viridis, SEV); assay: Post-emerge test, green foxtail; conditions: 250 g ai/ha, 14 days after application, rating scale 0-100 (0 no damage, 100 complete death)
Procedure, shortened: as §3

[24] = system: barnyardgrass (Echinachloa crus-galli, ECC); assay: Post-emerge test, barnyardgrass; conditions: 250 g ai/ha, 14 days after application, rating scale 0-100 (0 no damage, 100 complete death)
Procedure, shortened: as §3

[25] = system: johnsongrass (Sorghum halepense, SOH); assay: Post-emerge test, johnsongrass; conditions: 250 g ai/ha, 14 days after application, rating scale 0-100 (0 no damage, 100 complete death)
Procedure, shortened: as §3

[26] = system: large crabgrass (Digitaria sanguinalis, DIS); assay: Post-emerge test, large crabgrass; conditions: 250 g ai/ha, 14 days after application, rating scale 0-100 (0 no damage, 100 complete death)
Procedure, shortened: as §3

[27] = system: field corn (Zea mays L., var. Dekalb 535, CORN); assay: Post-emerge test, crop damage field corn
Procedure, shortened: as §3

[28] = system: soybean (Glycine max L., var. Pella 86, SOY); assay: Post-emerge test, crop damage soybean
Procedure, shortened: as §3

[29] = system: upland rice (Oryza sp., var.Tebonnet, RICE); assay: Post-emerge test, crop damage upland rice
Procedure, shortened: as §3

[30] = system: wheat (Triticum aestivum); assay: Post-emerge test, crop damage wheat
Procedure, shortened: as §3

[31] = pre-emerge, 250 g ai/ha, 14 days after application, rating scale 0-100 (0 no damage, 100 complete death)
[32] = post-emerge, 250 g ai/ha, 14 days after application, rating scale 0-100 (0 no damage, 100 complete death)
[33] = var. Dekalb 535, Zea mays (field corn), in vivo, 14 days
[34] = var. Pella 86, Glycine max (soybean), in vivo, 14 days
[35] = var. Tebonnet, Oryza sp. (upland rice), in vivo, 14 days
[36] = Triticum aestivum (wheat), in vivo, 14 days

| SMILES | Pre-emerge Herbicidal Activity AMR (phytotoxicity rating) [1] | Pre-emerge Herbicidal Activity ABT (phytotoxicity rating) [2] | Pre-emerge Herbicidal Activity CAO (phytotoxicity rating) [3] | Pre-emerge Herbicidal Activity IPH (phytotoxicity rating) [4] | Pre-emerge Herbicidal Activity CHA (phytotoxicity rating) [5] | Pre-emerge Herbicidal Activity AML (phytotoxicity rating) [6] | Pre-emerge Herbicidal Activity XAS (phytotoxicity rating) [7] | Pre-emerge Herbicidal Activity SEV (phytotoxicity rating) [8] | Pre-emerge Herbicidal Activity ECC (phytotoxicity rating) [9] | Pre-emerge Herbicidal Activity SOH (phytotoxicity rating) [10] | Pre-emerge Herbicidal Activity DIS (phytotoxicity rating) [11] | Post-emerge Herbicidal Activity AMR (phytotoxicity rating) [16] | Post-emerge Herbicidal Activity ABT (phytotoxicity rating) [17] | Post-emerge Herbicidal Activity CAO (phytotoxicity rating) [18] | Post-emerge Herbicidal Activity IPH (phytotoxicity rating) [19] | Post-emerge Herbicidal Activity CHA (phytotoxicity rating) [20] | Post-emerge Herbicidal Activity AML (phytotoxicity rating) [21] | Post-emerge Herbicidal Activity XAS (phytotoxicity rating) [22] | Post-emerge Herbicidal Activity SEV (phytotoxicity rating) [23] | Post-emerge Herbicidal Activity ECC (phytotoxicity rating) [24] | further results |
| --- | --- | --- | --- | --- | --- | --- | --- | --- | --- | --- | --- | --- | --- | --- | --- | --- | --- | --- | --- | --- | --- |
| O=C1CN2C(=O)COc3cc(F)c(N4C(=O)C5=C(CCCC5)C4=O)c(c32)N1 [1-37, 9-Flouro-8-(4,5,6,7-tetrahydro-2H-isoindole-1,3-dione-2-yl)-5H-pyrazino[1,2,3de]-1,4-benzoxazine-3,6(2H, 7H)-dione] | 100 | 60 | 40 | 85 | 100 | 98 | 35 | 0 | 15 | 25 | 40 | 100 | 100 | 15 | 100 | 85 | 70 | 95 | 75 | 60 | Pre-emerge crop damage CORN (phytotoxicity rating) [12, 31]: 15; Pre-emerge crop damage SOY (phytotoxicity rating) [13, 31]: 10; Pre-emerge crop damage RICE (phytotoxicity rating) [14, 31]: 20; Pre-emerge crop damage WHEAT (phytotoxicity rating) [15, 31]: 20; Post-emerge Herbicidal Activity SOH (phytotoxicity rating) [25]: 50; Post-emerge Herbicidal Activity DIS (phytotoxicity rating) [26]: 0; Post-emerge crop damage CORN (phytotoxicity rating) [27, 32]: 35; Post-emerge crop damage SOY (phytotoxicity rating) [28, 32]: 55; Post-emerge crop damage RICE (phytotoxicity rating) [29, 32]: 80; Post-emerge crop damage WHEAT (phytotoxicity rating) [30, 32]: 10 |
| C[C@H]1Oc2cc(F)c(-c3nn(C)c(C(F)(F)F)c3Cl)c3c2N(CC(=O)N3)C1=O [1-48, 8-[4-Chloro-1-methyl-5-(trifluoromethyl)-1H-pyrazol-3-yl]-9-fluoro-2-R-methyl-5H-pyrazino[1,2,3-de]-1,4-benzoxazine-3,6(2H, 7H)-dione] | 100 | 100 | 100 | 100 | 100 | 99 | 60 | 100 | 100 | 100 | 100 | 100 | 100 | 65 | 100 | 100 | 80 | 100 | 98 | 95 | Pre-emerge crop damage CORN (phytotoxicity rating) [12, 33]: 70; Pre-emerge crop damage SOY (phytotoxicity rating) [13, 34]: 40; Pre-emerge crop damage RICE (phytotoxicity rating) [14, 35]: 55; Pre-emerge crop damage WHEAT (phytotoxicity rating) [15, 36]: 25; Post-emerge Herbicidal Activity SOH (phytotoxicity rating) [25]: 30; Post-emerge Herbicidal Activity DIS (phytotoxicity rating) [26]: 50; Post-emerge crop damage CORN (phytotoxicity rating) [27, 33]: 10; Post-emerge crop damage SOY (phytotoxicity rating) [28, 34]: 65; Post-emerge crop damage RICE (phytotoxicity rating) [29, 35]: 60; Post-emerge crop damage WHEAT (phytotoxicity rating) [30, 36]: 0 |
| C[C@@H]1Oc2cc(F)c(-c3nn(C)c(C(F)(F)F)c3Cl)c3c2N(CC(=O)N3)C1=O [1-49, 8-[4-Chloro-1-methyl-5-(trifluoromethyl)-1H-pyrazol-3-yl]-9-fluoro-2-S-methyl-5H-pyrazino[1,2,3-de]-1,4-benzoxazine-3,6(2H, 7H)-dione] | 100 | 100 | 100 | 100 | 100 | 100 | 85 | 100 | 100 | 100 | 100 | 100 | 100 | 100 | 100 | 100 | 80 | 100 | 100 | 100 | Pre-emerge crop damage CORN (phytotoxicity rating) [12, 31]: 70; Pre-emerge crop damage SOY (phytotoxicity rating) [13, 31]: 50; Pre-emerge crop damage RICE (phytotoxicity rating) [14, 31]: 70; Pre-emerge crop damage WHEAT (phytotoxicity rating) [15, 31]: 60; Post-emerge Herbicidal Activity SOH (phytotoxicity rating) [25]: 65; Post-emerge Herbicidal Activity DIS (phytotoxicity rating) [26]: 99; Post-emerge crop damage CORN (phytotoxicity rating) [27, 32]: 35; Post-emerge crop damage SOY (phytotoxicity rating) [28, 32]: 80; Post-emerge crop damage RICE (phytotoxicity rating) [29, 32]: 85; Post-emerge crop damage WHEAT (phytotoxicity rating) [30, 32]: 50 |
| Cn1nc(-c2c(F)cc3c4c2NC(=O)CN4C(=O)C(C)(C)O3)c(Cl)c1C(F)(F)F [1-52, 8-[4-Chloro-1-methyl-5-(trifluoromethyl)-1H-pyrazol-3-yl]-2,2-dimethyl-9-fluoro-5H-pyrazino[1,2,3-de]-1,4-benzoxazine-3,6(2H, 7H)-dione] | 100 | 100 | 97 | 95 | 100 | 98 | 85 | 90 | 85 | 100 | 80 | 100 | 100 | 50 | 70 | 100 | 60 | 75 | 0 | 50 | Pre-emerge crop damage CORN (phytotoxicity rating) [12, 33]: 50; Pre-emerge crop damage SOY (phytotoxicity rating) [13, 34]: 50; Pre-emerge crop damage RICE (phytotoxicity rating) [14, 35]: 0; Pre-emerge crop damage WHEAT (phytotoxicity rating) [15, 36]: 0; Post-emerge Herbicidal Activity SOH (phytotoxicity rating) [25]: 0; Post-emerge Herbicidal Activity DIS (phytotoxicity rating) [26]: 0; Post-emerge crop damage CORN (phytotoxicity rating) [27, 33]: 0; Post-emerge crop damage SOY (phytotoxicity rating) [28, 34]: 0; Post-emerge crop damage RICE (phytotoxicity rating) [29, 35]: 0; Post-emerge crop damage WHEAT (phytotoxicity rating) [30, 36]: 0 |
